Reference: patent publication US20240034726A9, “MAP KINASE KINASE (MKK7) INHIBITORS AND USES THEREOF” (Dana-Farber Cancer Institute, Inc., priority 2020, published 2024)

Assays:
Assay in all cases: KINOMEscan
Type in all cases: binding
ULK1 = target: T1, ULK1 (Homo sapiens, UniProt O75385)
T1 construct: purchased KINOMEscan (Ambit) screening platform
Source text: (§1) The activity of the compounds was confirmed using Compound S-(I-1) in the KINOMEscan screening platform.

EGFR(S752-I759del) = target: T2, EGFR(S752-I759del) (Homo sapiens, UniProt P00533, DEL752-759)
T2 construct: purchased KINOMEscan (Ambit)
Source text: as §1

SYK = target: T3, SYK (Homo sapiens, UniProt P43405)
T3 construct: purchased KINOMEscan (Ambit)
Source text: as §1

FLT3(ITD) = test system: FLT3(ITD)
Source text: as §1

CDK8 = target: T4, CDK8 (Homo sapiens, UniProt P49336)
T4 construct: purchased KINOMEscan (Ambit)
Source text: as §1

CSK = target: T5, CSK (Homo sapiens, UniProt P41240)
T5 construct: purchased KINOMEscan (Ambit) screening platform
T5 sequence (P41240 whole entry): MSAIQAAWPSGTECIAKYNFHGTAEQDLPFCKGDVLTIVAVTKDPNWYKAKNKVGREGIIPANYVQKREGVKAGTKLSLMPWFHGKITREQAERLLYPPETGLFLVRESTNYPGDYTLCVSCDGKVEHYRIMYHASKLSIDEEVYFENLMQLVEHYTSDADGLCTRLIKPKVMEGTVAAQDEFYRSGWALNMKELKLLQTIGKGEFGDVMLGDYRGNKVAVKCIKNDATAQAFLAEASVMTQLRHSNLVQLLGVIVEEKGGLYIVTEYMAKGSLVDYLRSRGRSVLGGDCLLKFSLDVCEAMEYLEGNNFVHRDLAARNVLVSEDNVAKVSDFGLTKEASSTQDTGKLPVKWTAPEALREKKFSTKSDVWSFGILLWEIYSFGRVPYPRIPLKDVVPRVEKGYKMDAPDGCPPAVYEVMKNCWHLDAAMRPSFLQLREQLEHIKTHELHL
Source text: as §1

WNK1 = target: T6, WNK1 (Homo sapiens, UniProt Q9H4A3)
T6 construct: purchased KINOMEscan (Ambit) screening platform
Source text: as §1

MET(M1250T) = target: T7, MET(M1250T) (Homo sapiens, UniProt P08581, M1250T)
T7 construct: purchased KINOMEscan screening platform (Ambit)
T7 sequence (P08581 25-1390 M1250T): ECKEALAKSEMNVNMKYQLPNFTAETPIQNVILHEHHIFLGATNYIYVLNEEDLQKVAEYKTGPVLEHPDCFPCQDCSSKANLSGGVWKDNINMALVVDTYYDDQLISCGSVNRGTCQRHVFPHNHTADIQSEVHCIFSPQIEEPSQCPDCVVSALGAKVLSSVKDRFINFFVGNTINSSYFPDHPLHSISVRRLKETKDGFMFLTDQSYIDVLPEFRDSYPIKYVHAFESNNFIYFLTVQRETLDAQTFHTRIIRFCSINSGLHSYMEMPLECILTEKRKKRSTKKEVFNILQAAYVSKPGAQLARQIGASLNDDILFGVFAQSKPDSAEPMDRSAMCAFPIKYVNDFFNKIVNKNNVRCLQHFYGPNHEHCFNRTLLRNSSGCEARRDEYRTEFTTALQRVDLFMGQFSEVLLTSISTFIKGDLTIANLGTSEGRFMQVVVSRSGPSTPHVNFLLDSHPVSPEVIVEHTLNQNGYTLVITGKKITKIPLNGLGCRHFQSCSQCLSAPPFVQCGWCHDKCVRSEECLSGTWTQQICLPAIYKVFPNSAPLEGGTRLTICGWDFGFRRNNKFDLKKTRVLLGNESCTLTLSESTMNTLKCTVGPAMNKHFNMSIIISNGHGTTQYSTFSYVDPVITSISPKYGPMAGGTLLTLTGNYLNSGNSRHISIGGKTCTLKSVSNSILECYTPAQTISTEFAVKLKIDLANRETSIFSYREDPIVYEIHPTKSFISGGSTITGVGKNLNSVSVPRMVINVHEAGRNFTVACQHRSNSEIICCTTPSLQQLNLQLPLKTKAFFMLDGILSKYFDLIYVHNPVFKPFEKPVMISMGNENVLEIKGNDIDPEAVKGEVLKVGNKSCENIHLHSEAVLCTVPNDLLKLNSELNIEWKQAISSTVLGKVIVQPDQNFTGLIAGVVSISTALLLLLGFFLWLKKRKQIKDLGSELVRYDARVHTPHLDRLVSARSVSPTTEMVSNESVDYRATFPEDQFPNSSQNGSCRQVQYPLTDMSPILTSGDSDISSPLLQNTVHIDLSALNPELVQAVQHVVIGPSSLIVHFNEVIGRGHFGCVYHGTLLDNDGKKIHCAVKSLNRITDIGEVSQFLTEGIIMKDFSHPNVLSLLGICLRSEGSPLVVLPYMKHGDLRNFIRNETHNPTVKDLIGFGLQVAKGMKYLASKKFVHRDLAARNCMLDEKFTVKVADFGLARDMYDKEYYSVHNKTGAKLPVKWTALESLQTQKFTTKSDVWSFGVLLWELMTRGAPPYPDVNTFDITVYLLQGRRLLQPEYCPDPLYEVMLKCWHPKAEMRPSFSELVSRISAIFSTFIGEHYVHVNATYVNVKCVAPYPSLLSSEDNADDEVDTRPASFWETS
Source text: as §1

[1] = target: T8, TYK2(JH2domain-pseudokinase) (Homo sapiens, UniProt P29597)
T8 construct: TYK2(JH2domain); purchased KINOMEscan (Ambit) screening platform
Source text: as §1

PFTK1 = target: T9, PFTK1 (Homo sapiens, UniProt O94921)
T9 construct: purchased KINOMEscan screening platform (Ambit)
Source text: as §1

LOK = target: T10, LOK (Homo sapiens, UniProt O94804)
T10 construct: purchased KINOMEscan (Ambit) screening platform
Source text: as §1

CSNK1G2 = target: T11, CSNK1G2 (Homo sapiens, UniProt P78368)
T11 construct: purchased KINOMEscan (Ambit) screening platform
Source text: as §1

MET(Y1235D) = target: T12, MET(Y1235D) (Homo sapiens, UniProt P08581, Y1235D)
T12 construct: purchased KINOMEscan screening platform (Ambit)
Source text: as §1

[2] = target: T13, RSK4(Kin.Dom.2-C-terminal) (Homo sapiens, UniProt Q9UK32)
T13 construct: Kin.Dom.2; purchased KINOMEscan (Ambit)
Source text: as §1

[3] = target: T14, JAK1(JH2domain-pseudokinase) (Homo sapiens, UniProt P23458)
T14 construct: JAK1(JH2domain-; purchased KINOMEscan (Ambit) screening platform
Source text: as §1

MST1 = target: T15, MST1 (Homo sapiens, UniProt Q13043)
T15 construct: purchased KINOMEscan screening platform (Ambit)
Source text: as §1

EGFR(G719C) = target: T16, EGFR(G719C) (Homo sapiens, UniProt P00533, G719C)
T16 construct: purchased KINOMEscan (Ambit)
Source text: as §1

p38-alpha = target: T17, p38-alpha (Homo sapiens, UniProt Q16539)
T17 construct: purchased KINOMEscan (Ambit)
Source text: as §1

QSK = target: T18, QSK (Homo sapiens, UniProt Q9Y2K2)
T18 construct: KINOMEscan (Ambit)
Source text: as §1

IRAK4 = target: T19, IRAK4 (Homo sapiens, UniProt Q9NWZ3)
T19 construct: purchased KINOMEscan (Ambit) screening platform
Source text: as §1

CDK11 = target: T20, CDK11 (Homo sapiens, UniProt Q9BWU1)
T20 construct: purchased KINOMEscan (Ambit)
Source text: as §1

CHEK1 = target: T21, CHEK1 (Homo sapiens, UniProt O14757)
T21 construct: purchased KINOMEscan (Ambit) screening platform
Source text: as §1

[4] = target: T22, EGFR(L747-E749del, A750P) (Homo sapiens, UniProt P00533, A750P/DEL747-749)
T22 construct: purchased KINOMEscan (Ambit)
Source text: as §1

CDC2L5 = target: T23, CDC2L5 (Homo sapiens, UniProt Q14004)
T23 construct: purchased KINOMEscan (Ambit)
Source text: as §1

MET = target: T24, MET (Homo sapiens, UniProt P08581)
T24 construct: purchased KINOMEscan screening platform (Ambit)
Source text: as §1

DCAMKL1 = target: T25, DCAMKL1 (Homo sapiens, UniProt O15075)
T25 construct: purchased KINOMEscan (Ambit)
Source text: as §1

JNK2 = target: T26, JNK2 (Homo sapiens, UniProt P45984)
T26 construct: purchased KINOMEscan (Ambit) screening platform
Source text: as §1

[5] = target: T27, RSK4(Kin.Dom.1-N-terminal) (Homo sapiens, UniProt Q9UK32)
T27 construct: Kin.Dom.1; purchased KINOMEscan (Ambit)
T27 sequence (Q9UK32 73-330 limits assumed): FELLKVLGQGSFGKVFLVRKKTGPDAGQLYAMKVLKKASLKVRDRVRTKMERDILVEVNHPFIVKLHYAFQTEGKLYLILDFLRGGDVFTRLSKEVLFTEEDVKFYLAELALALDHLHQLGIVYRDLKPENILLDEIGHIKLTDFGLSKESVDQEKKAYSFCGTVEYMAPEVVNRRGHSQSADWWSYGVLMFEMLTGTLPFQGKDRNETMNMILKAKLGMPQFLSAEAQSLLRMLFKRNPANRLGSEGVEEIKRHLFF
Source text: as §1

ULK3 = target: T28, ULK3 (Homo sapiens, UniProt Q6PHR2)
T28 construct: purchased KINOMEscan (Ambit) screening platform
Source text: as §1

EPHA5 = target: T29, EPHA5 (Homo sapiens, UniProt P54756)
T29 construct: purchased KINOMEscan (Ambit)
Source text: as §1

EGFR(L858R, T790M) = target: T30, EGFR(L858R, T790M) (Homo sapiens, UniProt P00533, L858R/T790M)
T30 construct: purchased KINOMEscan (Ambit)
Source text: as §1

ACVR2B = target: T31, ACVR2B (Homo sapiens, UniProt Q13705)
T31 construct: purchased KINOMEscan (Ambit)
Source text: as §1

MAP4K3 = target: T32, MAP4K3 (Homo sapiens, UniProt Q8IVH8)
T32 construct: purchased KINOMEscan screening platform (Ambit)
Source text: as §1

SNARK = target: T33, SNARK (Homo sapiens, UniProt Q9H093)
T33 construct: purchased KINOMEscan (Ambit)
Source text: as §1

EGFR(G719S) = target: T34, EGFR(G719S) (Homo sapiens, UniProt P00533, G719S)
T34 construct: purchased KINOMEscan (Ambit)
Source text: as §1

BTK = target: T35, BTK (Homo sapiens, UniProt Q06187)
T35 construct: purchased KINOMEscan (Ambit)
Source text: as §1

BMPR2 = target: T36, BMPR2 (Homo sapiens, UniProt Q13873)
T36 construct: purchased KINOMEscan (Ambit)
T36 sequence (Q13873 27-1038): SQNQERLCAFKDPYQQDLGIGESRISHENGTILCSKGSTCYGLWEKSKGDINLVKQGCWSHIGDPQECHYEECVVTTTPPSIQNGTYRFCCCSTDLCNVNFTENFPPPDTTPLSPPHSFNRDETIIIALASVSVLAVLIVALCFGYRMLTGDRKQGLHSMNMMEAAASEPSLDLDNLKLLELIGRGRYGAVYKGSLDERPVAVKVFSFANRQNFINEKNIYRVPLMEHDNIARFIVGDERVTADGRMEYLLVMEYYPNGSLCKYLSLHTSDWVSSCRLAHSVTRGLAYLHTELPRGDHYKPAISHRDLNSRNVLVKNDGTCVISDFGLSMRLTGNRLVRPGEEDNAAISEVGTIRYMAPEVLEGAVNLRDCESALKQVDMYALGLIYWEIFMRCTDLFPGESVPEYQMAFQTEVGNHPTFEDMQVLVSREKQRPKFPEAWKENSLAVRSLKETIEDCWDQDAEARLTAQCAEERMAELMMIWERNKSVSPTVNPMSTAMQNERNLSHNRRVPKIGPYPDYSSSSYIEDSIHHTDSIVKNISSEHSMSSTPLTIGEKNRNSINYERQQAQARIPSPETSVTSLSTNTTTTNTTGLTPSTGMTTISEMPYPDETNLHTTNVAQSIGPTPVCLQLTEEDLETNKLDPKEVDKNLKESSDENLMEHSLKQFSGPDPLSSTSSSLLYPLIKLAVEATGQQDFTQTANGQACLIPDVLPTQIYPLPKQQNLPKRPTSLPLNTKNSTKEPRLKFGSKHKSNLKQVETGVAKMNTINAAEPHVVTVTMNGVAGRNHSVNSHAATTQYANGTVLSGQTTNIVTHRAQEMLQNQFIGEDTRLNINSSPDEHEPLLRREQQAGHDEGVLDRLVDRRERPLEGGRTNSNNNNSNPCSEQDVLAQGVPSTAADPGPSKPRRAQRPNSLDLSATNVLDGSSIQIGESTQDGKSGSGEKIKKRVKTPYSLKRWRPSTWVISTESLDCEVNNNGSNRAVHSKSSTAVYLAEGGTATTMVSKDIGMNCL
Source text: as §1

CSNK1G1 = target: T37, CSNK1G1 (Homo sapiens, UniProt Q9HCP0)
T37 construct: purchased KINOMEscan (Ambit) screening platform
T37 sequence (Q9HCP0 whole entry): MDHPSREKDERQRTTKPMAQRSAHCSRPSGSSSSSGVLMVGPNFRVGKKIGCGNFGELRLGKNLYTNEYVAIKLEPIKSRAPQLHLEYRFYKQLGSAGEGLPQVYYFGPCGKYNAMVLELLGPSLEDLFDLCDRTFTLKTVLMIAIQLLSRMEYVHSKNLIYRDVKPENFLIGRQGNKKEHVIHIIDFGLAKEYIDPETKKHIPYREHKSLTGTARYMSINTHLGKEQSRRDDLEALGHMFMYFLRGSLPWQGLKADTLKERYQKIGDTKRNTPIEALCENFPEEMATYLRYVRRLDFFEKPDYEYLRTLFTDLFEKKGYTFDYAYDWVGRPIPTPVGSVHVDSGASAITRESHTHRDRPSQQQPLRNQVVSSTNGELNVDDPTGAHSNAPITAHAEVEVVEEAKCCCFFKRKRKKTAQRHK
Source text: as §1

[6] = target: T38, JAK1(JH1domain-catalytic) (Homo sapiens, UniProt P23458)
T38 construct: JAK1(JH1domain); purchased KINOMEscan (Ambit) screening platform
Source text: as §1

MKK7 = target: T39, MKK7 (Homo sapiens, UniProt O14733)
T39 construct: purchased KINOMEscan screening platform (Ambit)
Source text: as §1

EGFR = target: T40, EGFR (Homo sapiens, UniProt P00533)
T40 construct: purchased KINOMEscan (Ambit)
Source text: as §1

EGFR(E746-A750del) = target: T41, EGFR(E746-A750del) (Homo sapiens, UniProt P00533, DEL746-750)
T41 construct: purchased KINOMEscan (Ambit)
Source text: as §1

PIP5K1C = target: T42, PIP5K1C (Homo sapiens, UniProt O60331)
T42 construct: purchased KINOMEscan (Ambit) screening platform
Source text: as §1

ARK5 = target: T43, ARK5 (Homo sapiens, UniProt O60285)
T43 construct: purchased KINOMEscan (Ambit)
Source text: as §1

PKMYT1 = target: T44, PKMYT1 (Homo sapiens, UniProt Q99640)
T44 construct: purchased KINOMEscan (Ambit) screening platform
Source text: as §1

EGFR(L858R) = target: T45, EGFR(L858R) (Homo sapiens, UniProt P00533, L858R)
T45 construct: purchased KINOMEscan (Ambit)
Source text: as §1

MST3 = target: T46, MST3 (Homo sapiens, UniProt Q9Y6E0)
T46 construct: purchased KINOMEscan screening platform (Ambit)
Source text: as §1

CDK2 = target: T47, CDK2 (Homo sapiens, UniProt P24941)
T47 construct: purchased KINOMEscan (Ambit)
Source text: as §1

ITK = target: T48, ITK (Homo sapiens, UniProt Q08881)
T48 construct: purchased KINOMEscan (Ambit) screening platform
Source text: as §1

[7] = target: T49, JAK2(JH1domain-catalytic) (Homo sapiens, UniProt O60674)
T49 construct: JAK2(JH1domain-; purchased KINOMEscan (Ambit) screening platform
Source text: as §1

[8] = target: T50, TYK2(JH1domain-catalytic) (Homo sapiens, UniProt P29597)
T50 construct: TYK2(JH1domain); purchased KINOMEscan (Ambit) screening platform
T50 sequence (P29597 897-1176 limits assumed): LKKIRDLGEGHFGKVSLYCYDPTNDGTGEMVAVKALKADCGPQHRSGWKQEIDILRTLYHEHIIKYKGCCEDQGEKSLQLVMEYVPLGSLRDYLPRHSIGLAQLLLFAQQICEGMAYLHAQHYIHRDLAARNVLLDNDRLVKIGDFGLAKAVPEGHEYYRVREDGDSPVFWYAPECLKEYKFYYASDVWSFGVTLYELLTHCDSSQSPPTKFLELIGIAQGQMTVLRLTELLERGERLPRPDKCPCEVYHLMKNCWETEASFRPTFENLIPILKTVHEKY
Source text: as §1

JNK3 = target: T51, JNK3 (Homo sapiens, UniProt P53779)
T51 construct: purchased KINOMEscan (Ambit) screening platform
Source text: as §1

SIK = target: T52, SIK (Homo sapiens, UniProt P57059)
T52 construct: purchased KINOMEscan (Ambit)
Source text: as §1

PLK2 = target: T53, PLK2 (Homo sapiens, UniProt Q9NYY3)
T53 construct: purchased KINOMEscan (Ambit) screening platform
Source text: as §1

MLK3 = target: T54, MLK3 (Homo sapiens, UniProt Q16584)
T54 construct: purchased KINOMEscan screening platform (Ambit)
Source text: as §1

EGFR(T790M) = target: T55, EGFR(T790M) (Homo sapiens, UniProt P00533, T790M)
T55 construct: purchased KINOMEscan (Ambit)
Source text: as §1

DLK = target: T56, DLK (Homo sapiens, UniProt Q12852)
T56 construct: purchased KINOMEscan (Ambit)
Source text: as §1

LATS2 = target: T57, LATS2 (Homo sapiens, UniProt Q9NRM7)
T57 construct: purchased KINOMEscan (Ambit) screening platform
Source text: as §1

CDK3 = target: T58, CDK3 (Homo sapiens, UniProt Q00526)
T58 construct: purchased KINOMEscan (Ambit)
T58 sequence (Q00526 whole entry): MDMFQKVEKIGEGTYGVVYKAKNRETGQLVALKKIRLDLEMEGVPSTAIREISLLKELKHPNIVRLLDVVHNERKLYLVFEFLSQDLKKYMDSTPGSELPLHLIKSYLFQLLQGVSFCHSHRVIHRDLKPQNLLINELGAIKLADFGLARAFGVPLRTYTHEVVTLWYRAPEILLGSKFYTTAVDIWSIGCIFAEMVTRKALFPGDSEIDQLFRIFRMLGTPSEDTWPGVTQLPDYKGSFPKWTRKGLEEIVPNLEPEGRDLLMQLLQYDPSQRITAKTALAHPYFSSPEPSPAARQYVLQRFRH
Source text: as §1

LZK = target: T59, LZK (Homo sapiens, UniProt O43283)
T59 construct: purchased KINOMEscan screening platform (Ambit)
Source text: as §1

CIT = target: T60, CIT (Homo sapiens, UniProt O14578)
T60 construct: purchased KINOMEscan (Ambit) screening platform
Source text: as §1

JNK1 = target: T61, JNK1 (Homo sapiens, UniProt P45983)
T61 construct: purchased KINOMEscan (Ambit) screening platform
Source text: as §1

EGFR(L747-T751del, Sins) = test system: EGFR(L747-T751del, Sins)
Source text: as §1

[9] = target: T62, EGFR(L747-S752del, P753S) (Homo sapiens, UniProt P00533, DEL747-752/P753S)
T62 construct: purchased KINOMEscan (Ambit)
Source text: as §1

EGFR(L861Q) = target: T63, EGFR(L861Q) (Homo sapiens, UniProt P00533, L861Q)
T63 construct: purchased KINOMEscan (Ambit)
Source text: as §1

EPHB2 = target: T64, EPHB2 (Homo sapiens, UniProt P29323)
T64 construct: purchased KINOMEscan (Ambit)
Source text: as §1

MARK4 = target: T65, MARK4 (Homo sapiens, UniProt Q96L34)
T65 construct: purchased KINOMEscan screening platform (Ambit)
T65 sequence (Q96L34 whole entry): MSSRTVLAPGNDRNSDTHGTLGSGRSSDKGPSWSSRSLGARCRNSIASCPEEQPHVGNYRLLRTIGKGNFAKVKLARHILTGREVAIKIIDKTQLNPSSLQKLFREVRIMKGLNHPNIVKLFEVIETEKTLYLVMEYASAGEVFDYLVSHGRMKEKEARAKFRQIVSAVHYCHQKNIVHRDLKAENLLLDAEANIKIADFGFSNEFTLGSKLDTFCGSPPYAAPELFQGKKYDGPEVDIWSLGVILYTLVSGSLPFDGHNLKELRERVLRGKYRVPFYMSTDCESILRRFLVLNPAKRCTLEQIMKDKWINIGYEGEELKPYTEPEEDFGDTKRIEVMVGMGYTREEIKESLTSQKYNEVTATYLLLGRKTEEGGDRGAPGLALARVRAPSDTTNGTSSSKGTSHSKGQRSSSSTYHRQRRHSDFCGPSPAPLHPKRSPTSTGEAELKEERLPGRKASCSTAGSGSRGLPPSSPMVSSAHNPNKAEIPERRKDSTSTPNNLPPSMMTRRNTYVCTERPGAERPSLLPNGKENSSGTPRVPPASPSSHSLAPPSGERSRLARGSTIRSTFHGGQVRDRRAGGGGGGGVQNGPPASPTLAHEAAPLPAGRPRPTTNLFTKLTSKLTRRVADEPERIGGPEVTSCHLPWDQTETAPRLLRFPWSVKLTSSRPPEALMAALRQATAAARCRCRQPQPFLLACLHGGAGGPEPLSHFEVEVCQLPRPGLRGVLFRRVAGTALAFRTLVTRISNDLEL
Source text: as §1

PRKR = target: T66, PRKR (Homo sapiens, UniProt P19525)
T66 construct: KINOMEscan (Ambit)
Source text: as §1

CSNK1G3 = target: T67, CSNK1G3 (Homo sapiens, UniProt Q9Y6M4)
T67 construct: purchased KINOMEscan (Ambit) screening platform
Source text: as §1

SMILES: C=CC(=O)N1CCC(Nc2nccc(Oc3cc(C(=O)Nc4ccc(CN5CCN(CC)CC5)c(C(F)(F)F)c4)ccc3C)n2)C1 (stereo not drawn) [S-(I-1)]
- Score (ULK1): 94
- Score (EGFR(S752-I759del)): 90
- Score (SYK): 24
- Score (FLT3(ITD)): 24
- Score (CDK8): 2.8
- Score (CSK): 58
- Score (WNK1): 86
- Score (MET(M1250T)): 99
- Score [1]: 92
- Score (PFTK1): 77
- Score (LOK): 0.35
- Score (CSNK1G2): 97
- Score (MET(Y1235D)): 96
- Score [2]: 91
- Score [3]: 100
- Score (MST1): 100
- Score (EGFR(G719C)): 59
- Score (p38-alpha): 0
- Score (QSK): 87
- Score (IRAK4): 81
- Score (CDK11): 0
- Score (CHEK1): 100
- Score [4]: 52
- Score (CDC2L5): 65
- Score (MET): 100
- Score (DCAMKL1): 99
- Score (JNK2): 0.35
- Score [5]: 90
- Score (ULK3): 78
- Score (EPHA5): 87
- Score (EGFR(L858R, T790M)): 94
- Score (ACVR2B): 93
- Score (MAP4K3): 93
- Score (SNARK): 100
- Score (EGFR(G719S)): 81
- Score (BTK): 98
- Score (BMPR2): 100
- Score (CSNK1G1): 91
- Score [6]: 62
- Score (MKK7): 0.9
- Score (EGFR): 68
- Score (EGFR(E746-A750del)): 66
- Score (PIP5K1C): 52
- Score (ARK5): 83
- Score (PKMYT1): 89
- Score (EGFR(L858R)): 84
- Score (MST3): 88
- Score (CDK2): 77
- Score (ITK): 98
- Score [7]: 84
- Score [8]: 91
- Score (JNK3): 52
- Score (SIK): 87
- Score (PLK2): 89
- Score (MLK3): 97
- Score (EGFR(T790M)): 90
- Score (DLK): 90
- Score (LATS2): 100
- Score (CDK3): 56
- Score (LZK): 100
- Score (CIT): 61
- Score (JNK1): 28
- Score (EGFR(L747-T751del, Sins)): 43
- Score [9]: 38
- Score (EGFR(L861Q)): 66
- Score (EPHB2): 91
- Score (MARK4): 100
- Score (PRKR): 85
- Score (CSNK1G3): 92
